What all share (assay type): cell-based
In assay [1] the target is T1, P2X7R (Homo sapiens, UniProt Q99572).
T1 sequence (Q99572 1-595): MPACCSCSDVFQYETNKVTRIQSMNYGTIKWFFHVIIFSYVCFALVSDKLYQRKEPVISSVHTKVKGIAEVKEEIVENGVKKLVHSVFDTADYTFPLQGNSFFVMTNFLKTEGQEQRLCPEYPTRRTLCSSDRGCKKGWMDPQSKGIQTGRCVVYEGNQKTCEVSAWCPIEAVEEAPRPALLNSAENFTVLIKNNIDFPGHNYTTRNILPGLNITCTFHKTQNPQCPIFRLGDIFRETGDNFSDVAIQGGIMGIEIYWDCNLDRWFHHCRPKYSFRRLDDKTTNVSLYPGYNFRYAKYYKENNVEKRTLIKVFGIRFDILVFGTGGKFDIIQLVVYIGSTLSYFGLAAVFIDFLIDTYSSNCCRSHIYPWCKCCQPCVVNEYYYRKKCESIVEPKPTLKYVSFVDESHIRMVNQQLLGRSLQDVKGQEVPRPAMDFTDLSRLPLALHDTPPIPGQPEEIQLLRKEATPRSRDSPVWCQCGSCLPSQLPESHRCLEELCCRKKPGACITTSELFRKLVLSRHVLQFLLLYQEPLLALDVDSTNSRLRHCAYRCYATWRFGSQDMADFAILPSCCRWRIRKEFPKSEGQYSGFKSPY
Kind of assay: whole-cell patch clamp, concentration-dependent inward currents.

Assay [2] addresses T1, P2X7R. The assay is described as follows: whole-cell patch clamp:[…] blocks […] ATP-evoked current. (In general: In patch-clamp work, channel activity is measured electrically.)
For assay [3], the target named is T1, P2X7R. Kind of assay: inhibition of ATP-induced.

One may read the EC50 as the concentration at which the effect is half-maximal. A low value points to a more potent agent. On P2X7R [1], `Nc1ncnc2c1ncn2[C@@H]1O[C@H](COP(=O)(O)OP(=O)(O)OP(=O)(O)O)[C@@H](O)[C@H]1O` [ATP] registered an EC50 of 877 µM. What is called IC50 is the concentration that gives 50% inhibition. Lower therefore signals greater potency. As for `Clc1cccc(-c2nnnn2Cc2cccnc2)c1Cl` [A438079], the 50% inhibitory concentration (IC50) at P2X7R [2] was determined as 2.25 µM. Regarding `O=C1CSC(=O)N1C(CCc1ccncc1)COc1ccc(-c2cccc([N+](=O)[O-])c2)cc1` (stereo not drawn) [AZ11645373], the concentration for half-maximal inhibition (IC50) against P2X7R [3] was determined as 1.35 µM.

(Values after publication PMC3672848 (Journal of immunology (Baltimore, Md. : 1950), 2013).)
